The values that follow come from ChEMBL document CHEMBL3507680, “University of Dundee, Gates Library screen for HepG2 cell viability”.

This series can be described thus: Human HepG2 cell viability assay in 384 well format. It is filed as toxicity, cell-based. More on the design: dose 125 nL, time 70.5 hour; concentration not given beside the values. The following applies: HepG2 cells, read-out: Inhibition.

Regarding `Cn1cc(CC(=O)N2CCCC(n3cncn3)C2)cn1` (configuration not stated), the cytotoxicity at 70.5 h is -3.54%. Take `CCC1CN(C(=O)NCc2cccnc2-n2cccn2)CCO1` (configuration not stated): the cytotoxicity at 70.5 h was -5.61%.

`O=C(c1cnn(-c2ccccc2)n1)N1CCCC(n2cccn2)C1` (configuration not stated): the cytotoxicity at 70.5 h is -10.8%. Then `CCOCCN1CCN(Cc2cccc(C(=O)N(C)C)c2)CC1CC` (configuration not stated), with -6.73%. Take `O=C(NCc1ccccc1-n1cccn1)N1CCC(N2CCCC2)C1` (configuration not stated): the cytotoxicity at 70.5 h was -6.47%. On to `c1ccc(OCCN2CCc3c(ncn3C3CC3)C2)cc1`, for which the cytotoxicity at 70.5 h was -4.85%. `COCCN1CCN(Cc2cccc(C(=O)N(C)C)c2)CC1`: the cytotoxicity at 70.5 h is -4.26%. The value for `Cc1cc(C)n(CC2CCCCN2C(=O)c2ccsc2)n1` (configuration not stated) was -2.03%; that for `Cc1nn(C)c(C)c1CCC(=O)N1CCCC(n2cncn2)C1` (configuration not stated) was -6.31%; that for `CCN(Cc1ccc2c(c1)OCO2)C(=O)Cn1cccnc1=O` was -0.305%.

As to `CCN(Cc1ccc2c(c1)OCCO2)C(=O)Cn1cccnc1=O`, the cytotoxicity at 70.5 h is -5.36%. The value for `CC(=O)NC1CCCN(C(=O)NCc2ccc(-n3cccn3)cc2)C1` (configuration not stated) was -2.4%; that for `CCc1noc(C(C)N2CCN(C(=O)CN3CCOCC3)CC2)n1` (configuration not stated) was 0.684%. As to `CN1CCCN(C(=O)NCc2cccnc2-n2cccn2)CC1`, the cytotoxicity at 70.5 h is -0.342%. Then `CCC1CCCN(C(=O)NCc2cccnc2-n2cccn2)C1` (configuration not stated), with -4.16%.

In the case of `CNC(=O)COc1ccc(CNCc2c(C)nn(C)c2N(C)C)cc1`, the cytotoxicity at 70.5 h was -0.911%.

Regarding `Cc1nn(-c2ccccc2)nc1C(=O)N1CCCC(n2cccn2)C1` (configuration not stated), the cytotoxicity at 70.5 h was -1.86%. For `O=C(CN1CCCC(Cn2cncn2)C1)NCCCc1ccccc1` (configuration not stated), the cytotoxicity at 70.5 h was -2.31%. Turning to `O=C(CN1CCCC(Cn2cncn2)C1)NCCc1cccs1` (configuration not stated), the cytotoxicity at 70.5 h was 0.827%. Then `Cc1ccc(CNC(=O)CN2CCOC(Cn3cncn3)C2)s1` (configuration not stated), with -2.32%; and `CCNc1cc2c(nn1)CCN(C(=O)c1cc3cc(C)ccc3o1)C2`, with 5.36%; and `CCc1nc(C2CCCN2C(=O)c2ccc3c(c2)[nH]c(=O)n3C)no1` (configuration not stated), with 2.37%. Then `Cc1nc(C2CCCN2C(=O)c2ccc3c(c2)nc(C)n3C)no1` (configuration not stated), with 3.45%. The value for `O=S(=O)(CCN1CCc2c(ncn2C2CC2)C1)c1ccccc1` was 16.5%; that for `Cc1cccc(N2CCN(C(=O)NC(C)c3nncn3C)CC2)c1` (configuration not stated) was 20.1%. For the molecule `Cc1cc(NC(=O)NCC2COc3ccccc3C2)no1` (configuration not stated), the cytotoxicity at 70.5 h is 52%.

As for `Cc1noc(C)c1C(=O)NCc1ccc(N2CCC(C)CC2)nc1`, the cytotoxicity at 70.5 h is 1.58%. `COc1ncccc1CNC(=O)NC(C)Cn1cccn1` (configuration not stated): the cytotoxicity at 70.5 h is -14.1%. Take `Cc1noc(C)c1CN(C)C(=O)c1ccc(C(F)(F)F)nc1`: the cytotoxicity at 70.5 h is -0.00923%. Then `CCN1CCN(c2ccc(CNC(=O)c3cc(C)on3)cn2)CC1`, with -4.09%.

Regarding `CC(Cn1cccn1)NC(=O)NCc1ccnc(OC2CCCC2)c1` (configuration not stated), the cytotoxicity at 70.5 h was -8.79%. The value for `CC(Cn1cccn1)NC(=O)NCc1ccc(OC2CCCC2)nc1` (configuration not stated) was 19.5%. The value for `Cc1ccc(OCCN(C)C(=O)NC(C)c2nncn2C)cc1` (configuration not stated) was -5.04%.

Turning to `CC(Cn1ccnc1)NC(=O)NCc1cccnc1OC1CCCC1` (configuration not stated), the cytotoxicity at 70.5 h was -8.81%. On to `CC(NC(=O)N1CCN(c2nccs2)CC1)c1nncn1C` (configuration not stated), for which the cytotoxicity at 70.5 h was -7.23%. Consider `O=C(NCCc1coc(-c2ccccc2)n1)NC1CC1`, for which the cytotoxicity at 70.5 h is 20.2%. Then `Cc1cnn(CC2CN(CC(=O)N(C)Cc3cnn(C)c3)CCO2)c1` (configuration not stated), with -7.34%; and `O=C(NCCc1coc(-c2ccc(F)cc2)n1)NC1CC1`, with -3.96%; and `Cc1ccc(-c2nc(CCNC(=O)NC3CCC(O)CC3)co2)cc1` (configuration not stated), with 0.284%. Turning to `COc1ccc(C(=O)N2CCCS2(=O)=O)cc1`, the cytotoxicity at 70.5 h was -5.25%. With `Cc1ccc(-c2nc(CCNC(=O)NCC(C)(C)C(N)=O)co2)cc1`, the cytotoxicity at 70.5 h is -0.0567%. The value for `CCc1nc(C2CCCN2C(=O)c2cc[nH]n2)no1` (configuration not stated) was 3.06%. Regarding `COc1ccc(-c2noc(CN3CCCC3Cn3cccn3)n2)cc1` (configuration not stated), the cytotoxicity at 70.5 h was -1.01%. The value for `Cc1cccc(-c2noc(CN3CCCCC3Cn3cncn3)n2)c1` (configuration not stated) was -6.45%. In the case of `Cc1nnc(CN(C)C2CCN(Cc3nc4ccccc4n3C)C2)o1` (configuration not stated), the cytotoxicity at 70.5 h is -1.55%. Then `CCc1nc(C2CCCN2C(=O)c2cc(Cl)c[nH]2)no1` (configuration not stated), with -2.89%; and `Cc1nc(CC(=O)N2CCCC2Cn2cccn2)cs1` (configuration not stated), with -5%; and `Cc1cc(C2CCCN(C(=O)COc3cc(C)on3)C2)n[nH]1` (configuration not stated), with -3.29%.

Turning to `Cc1cc(NC(=O)CN2CCCC2c2noc(C)n2)n(C)n1` (configuration not stated), the cytotoxicity at 70.5 h was -5.38%. Then `CCc1nc(CN2CCCN(Cc3nnc(C4CC4)o3)CC2)no1`, with -5.98%; and `Cc1nc(C)n(CC2CCCN(CCOc3ccccc3F)C2)n1` (configuration not stated), with 28.7%; and `CCc1nccn1C1CCCN(C(=O)c2c(C)nsc2NC)C1` (configuration not stated), with -7.79%.

With `Cn1nc2c(cc1=O)CN(Cc1nc(-c3ccsc3)no1)CC2`, the cytotoxicity at 70.5 h was -19.7%. For the molecule `Cc1ccccc1-c1noc(CN2CCc3nn(C)c(=O)cc3C2)n1`, the cytotoxicity at 70.5 h is -11.6%. For the molecule `CCc1nc(C2CCCN2CC(=O)Nc2cc(C)nn2C)no1` (configuration not stated), the cytotoxicity at 70.5 h is -15.1%. Then `CC(Cn1cccn1)NC(=O)c1cccs1` (configuration not stated), with -9.89%. The value for `O=C(NCCCN1CCc2ccccc2C1)c1ccccc1Cl` was -7.27%; that for `COc1cc(C)nc(N2CCN(C(=O)CNC(C)(C)C)CC2)n1` was -15.6%; that for `O=C1C(NCc2nnc3n2CCCC3)CCN1c1ccccc1` (configuration not stated) was -5.59%. As to `CC(C)(C)c1n[nH]c(C2CN(C(=O)c3ccsc3)CCO2)n1` (configuration not stated), the cytotoxicity at 70.5 h is -16.5%. The value for `CC(C)(C)c1n[nH]c(C2CN(C(=O)CCc3cscn3)CCO2)n1` (configuration not stated) was -21.1%; that for `CCn1nc2c(cc1=O)CN(Cc1nc(CCOC)no1)CC2` was -16%; that for `CCOc1cc(CNC(=O)N2CCC(Cc3cnn(C)c3)C2)ccn1` (configuration not stated) was -10.6%.

Take `Cc1cc(C)n(CC2CCCN2CCc2ccncc2)n1` (configuration not stated): the cytotoxicity at 70.5 h was 17.9%.

Take `Cc1cnn(CC2CCCN2C(=O)c2ccc(OC(C)C)nc2)c1` (configuration not stated): the cytotoxicity at 70.5 h is -15%. In the case of `O=C1C(NCc2nnc3n2CCCC3)CCN1CC(F)(F)F` (configuration not stated), the cytotoxicity at 70.5 h is 20.6%. In the case of `Cc1nccn1C1CCCN(C(=O)COCC(F)(F)F)C1` (configuration not stated), the cytotoxicity at 70.5 h is -7.9%. For the molecule `COc1cccc(CCNCc2c(C)nn(C)c2N(C)C)c1`, the cytotoxicity at 70.5 h was -4.91%.

Take `COc1cc(CNCc2c(C(C)C)nn(C)c2N(C)C)ccn1`: the cytotoxicity at 70.5 h was -5.93%. For the molecule `Cc1cc(C)n(CC2CN(Cc3cscn3)CCO2)n1` (configuration not stated), the cytotoxicity at 70.5 h is -4.76%. Consider `CC(C)c1nn(C)c(N(C)C)c1CNCc1ccccc1CN(C)C`, for which the cytotoxicity at 70.5 h is -0.417%. For `COCc1cccc(CNC(=O)CN2CCCC2c2noc(C)n2)c1` (configuration not stated), the cytotoxicity at 70.5 h was -13.1%. The value for `Cc1noc2ncc(C(=O)N(CC3CCOC3)C3CC3)cc12` (configuration not stated) was -6.78%; that for `Cc1cc(C)c(CNC(=O)NCC2CCCN2C)c(=O)[nH]1` (configuration not stated) was 19%. `Cc1cc(C)c(CNC(=O)N(C)CC2CCCCO2)c(=O)[nH]1` (configuration not stated): the cytotoxicity at 70.5 h was -3.49%. For `Cc1cc(C)c(CNC(=O)N2CCN(c3ncccn3)CC2)c(=O)[nH]1`, the cytotoxicity at 70.5 h is 0.0542%.

With `Cc1cc(C)c(CNC(=O)NCC2CCCO2)c(=O)[nH]1` (configuration not stated), the cytotoxicity at 70.5 h was 26.7%. Then `Cc1cnn(CC2CN(CC(=O)Nc3nnc(C)s3)CCO2)c1` (configuration not stated), with -9.05%; and `Cc1ccc(NC2CCN(C(=O)c3cc[nH]n3)CC2)nn1`, with -11%; and `CC(C)c1ccc(C(O)Cn2c(=O)c(C#N)cn(C3CC3)c2=O)cc1` (configuration not stated), with -3.45%. The value for `c1ncn(CC2CCCCN2Cc2noc(C3CC3)n2)n1` (configuration not stated) was 11.3%. In the case of `Cc1ccc(C(=O)Nc2cn[nH]c2)cc1C`, the cytotoxicity at 70.5 h is -1.12%. For the molecule `Cc1nc(C)c(CC(=O)Nc2nnc(C)s2)c(=O)[nH]1`, the cytotoxicity at 70.5 h is 0.383%. As for `CCn1cc(NC(=O)NCC(c2cccc(F)c2)N(C)C)cn1` (configuration not stated), the cytotoxicity at 70.5 h is -4.54%.

On to `Cc1ncsc1C(=O)N(C)Cc1ccncc1`, for which the cytotoxicity at 70.5 h came out at 28.4%. As to `COc1ccc(C)cc1CNCc1ccc(-n2nc(C)cc2C)nc1`, the cytotoxicity at 70.5 h worked out at 5.93%. For the molecule `Cc1ccc(CNCc2ccc(-n3nc(C)cc3C)nc2)cc1`, the cytotoxicity at 70.5 h was -6.83%. Consider `Cc1ccc(C)c(OC2CCN(C(=O)c3ccc(O)nc3)CC2)c1`, for which the cytotoxicity at 70.5 h amounted to 2.43%. Then `Cc1ccc(C(=O)N2CCC(Oc3ccc(F)cc3F)CC2)c(=O)[nH]1`, with 31.6%; and `CC(C)(CNC(=O)CCOc1cccc(F)c1)C(N)=O`, with 2.27%; and `CCCN(CC1COc2ccccc2O1)C(=O)CCn1cncn1` (configuration not stated), with -1.87%. Then `COc1cccc(COCC(=O)N2CCC(CC(N)=O)CC2)c1`, with 4.02%; and `Cc1cn2c(n1)CCC(NC(=O)c1ccc(CS(C)(=O)=O)o1)C2` (configuration not stated), with -2.86%; and `c1ccc(-c2nccc(CNCC3CCCN3c3cccnn3)n2)cc1` (configuration not stated), with 39.7%. Then `Cc1nc(CNCC2CCCN2c2cccnn2)cs1` (configuration not stated), with 2.56%. Consider `Cn1cc(Cl)cc1C(=O)N1CCCN(Cc2cccs2)CC1`, for which the cytotoxicity at 70.5 h came out at 4.57%.

`N#CC1(C(=O)NCCCNc2ccc(C(F)(F)F)cn2)CCCC1`: the cytotoxicity at 70.5 h was 5.77%. Then `Cc1cnn(CCCNC(=O)N2CCCCC(N3CCCC3)C2)c1` (configuration not stated), with -6.01%.

Consider `CCN(CC)C(=O)CN(C)C1CCc2ccccc21` (configuration not stated), for which the cytotoxicity at 70.5 h is -3.62%. Then `CCOCC(O)CN1CCN(C(=O)Cc2ccc3c(c2)CCO3)CC1` (configuration not stated), with 0.715%; and `O=C(Nc1cnn(CCN2CCOCC2)c1)c1ccccc1O`, with 0.705%. Then `CCn1c(CN2CCCN(C(=O)OC)CC2)nc2c(F)cccc21`, with 18.8%.
